# Source: patent US9662390B2, “Use of opioid antagonists to attenuate endothelial cell proliferation and migration” (THE UNIVERSITY OF CHICAGO, priority 2005, dated 2017)
# Entries after “also recorded” stand apart in the source; their conditions may differ.
# Columns and labels:
# VEGF receptor 1 (Flt-1) = test: Tyrosine phosphorylation of VEGF receptor 1, immunoprecipitation and immunoblot; assay type: cell-based, human; settings: HPMVEC
# VEGF receptor = test: Tyrosine phosphorylation of the VEGF receptor in EC (Example 9); assay type: cell-based, human
# PDGF receptor = test: Tyrosine phosphorylation of the PDGF receptor in EC (Example 9); assay type: cell-based, human
# VEGF receptor 2 (Flk-1) = test: Tyrosine phosphorylation of VEGF receptor 2, immunoprecipitation and immunoblot; assay type: cell-based, human; settings: HPMVEC
# RhoA = RhoA activation assay (RBD beads, anti-RhoA immunoblot); assay type: cell-based, human; settings: for agonist-stimulated RhoA activation: endothelial cells
# Text: The supernatant is removed and the RBD-beads with the GTP-bound form of RhoA bound are washed extensively.
# [1] = tested on: human pulmonary microvascular endothelial cells (HPMVEC); test: Human pulmonary microvascular EC migration assay (Transwell); assay type: cell-based; settings: for agonist-induced HPMVEC migration: agonist 100 nM, 18 hours
# [2] = tested on: human pulmonary microvascular endothelial cells (HPMVEC); test: Human pulmonary microvascular EC proliferation assay (CellTiter96 MTS); assay type: cell-based; settings: for agonist-induced HPMVEC proliferation: agonist 100 nM, 24 h, serum-free media
# S1P3 receptor = test: Tyrosine phosphorylation of the S1P3 receptor in EC (Example 9); assay type: cell-based, human
# mu opioid receptor = mu opioid receptor (Homo sapiens, UniProt P35372); test: Serine/threonine phosphorylation of the mu opioid receptor in EC (Example 9); assay type: cell-based
# mu opioid receptor, sequence (P35372 whole entry): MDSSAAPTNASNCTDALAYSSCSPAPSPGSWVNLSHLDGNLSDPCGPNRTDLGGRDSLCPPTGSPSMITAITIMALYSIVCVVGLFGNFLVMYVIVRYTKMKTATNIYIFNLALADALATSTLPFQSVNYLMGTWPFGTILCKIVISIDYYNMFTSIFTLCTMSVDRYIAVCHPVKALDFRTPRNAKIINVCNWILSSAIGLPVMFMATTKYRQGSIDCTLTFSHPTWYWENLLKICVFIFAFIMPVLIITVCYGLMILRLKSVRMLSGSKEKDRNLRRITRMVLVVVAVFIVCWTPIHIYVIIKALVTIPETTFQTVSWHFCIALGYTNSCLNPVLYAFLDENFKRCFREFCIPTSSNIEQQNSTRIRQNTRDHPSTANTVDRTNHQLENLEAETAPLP
# [3] = white crystalline powder, typically the bromide salt; cited from earlier work
# tumors = test: Tumor-bearing mice: tumor growth and angiogenesis; assay type: in vivo; settings: eight weeks; for angiogenesis and tumor growth, combination of opioid, opioid antagonist and anticancer agent compared to the other groups: antagonist 5 mg/kg/day, morphine 0.5 mg/kg/day, bevacizumab (Avastin) 5 mg/kg every 14 days; for tumor growth and angiogenesis compared to controls or opioid alone: antagonist orally 5 mg/kg/day with morphine orally 0.5 mg/kg/day
# tumor = test: Human cancer patients: tumor growth and angiogenesis; assay type: in vivo; settings: antagonist orally 5 mg/kg/day, eight weeks, with opioid and bevacizumab (Avastin)
# [4] = in vivo; cited from earlier work
# [5] = sickle cell disease; cited from earlier work
# F11 c-1 = settings: T241 fibrosarcoma; no increase in morphine treated KO mice; cited from earlier work
# [6] = tested on: morphine induced angiogenesis; settings: xenograft tumor model in mice; cited from earlier work
# [7] = MNTX 100 nM (0.1 μM, 1 hour pretreatment), induced by MS/morphine, DAMGO, VEGF, in Example 9 also S1P and PDGF
compound,measurement,setting,value
"C[C@@H](NC(=O)[C@@H](N)Cc1ccc(O)cc1)C(=O)NCC(=O)N(C)[C@@H](Cc1ccccc1)C(=O)NCCO [DAMGO, [D-Ala^2, N-MePhe^4, Gly^5-ol] enkephalin]",agonist-induced tyrosine phosphorylation of VEGF receptor 1 (Flt-1),VEGF receptor 1 (Flt-1),induce tyrosine phosphorylation
same,agonist-induced tyrosine phosphorylation of the VEGF receptor,VEGF receptor,induced tyrosine phosphorylation
same,agonist-induced tyrosine phosphorylation of the PDGF receptor,PDGF receptor,induced tyrosine phosphorylation
same,agonist-induced tyrosine phosphorylation of VEGF receptor 2 (Flk-1),VEGF receptor 2 (Flk-1),induce tyrosine phosphorylation
same,agonist-stimulated RhoA activation,RhoA,stimulate RhoA activation
same,agonist-induced HPMVEC migration,[1],induce HPMVEC migration; also recorded: induced
same,agonist-induced HPMVEC proliferation,[2],stimulate HPMVEC proliferation; also recorded: induced proliferation
same,agonist-induced tyrosine phosphorylation of the S1P3 receptor,S1P3 receptor,induced tyrosine phosphorylation
"C[N+]1(CC2CC2)CCC23c4c5ccc(O)c4OC2C(=O)CCC3(O)C1C5 (stereo not shown) [MNTX, N-methylnaltrexone]",effect on MS and DAMGO induced tyrosine phosphorylation of VEGF receptor 1,VEGF receptor 1 (Flt-1),blocked
same,effect on VEGF induced tyrosine phosphorylation of VEGF receptor 1,VEGF receptor 1 (Flt-1),attenuates
same,effect of MNTX pretreatment on agonist-induced mu opioid receptor phosphorylation,mu opioid receptor,attenuated
same,effect of MNTX pretreatment on agonist-induced VEGF receptor phosphorylation,VEGF receptor,attenuated
same,solubility in water,[3],freely soluble in water
same,"angiogenesis and tumor growth, combination of opioid, opioid antagonist and anticancer agent compared to the other groups",tumors,enhanced result
same,tumor growth and angiogenesis compared to controls or opioid alone,tumors,reduction in tumor growth and angiogenesis
same,effect of MNTX pretreatment on agonist-induced PDGF receptor phosphorylation,PDGF receptor,attenuated
same,effect on MS and DAMGO induced tyrosine phosphorylation of VEGF receptor 2,VEGF receptor 2 (Flk-1),blocked
same,effect on VEGF induced tyrosine phosphorylation of VEGF receptor 2,VEGF receptor 2 (Flk-1),attenuates
same,"angiogenesis and tumor growth, combination of opioid, opioid antagonist and anticancer agent compared to the other groups",tumor,enhanced result
same,effect on agonist-stimulated RhoA activation,"RhoA; induced by morphine/MS, DAMGO, VEGF, in Example 9 also S1P and PDGF",inhibited; also recorded: attenuated
same,tolerability of doses that maintain plasma MNTX between about 25 and 150 ng/mL,[4],well tolerated
same,inhibition of agonist-induced HPMVEC migration,[1]; [7],inhibited
same,inhibition of agonist-induced HPMVEC proliferation,[2]; [7],attenuated; also recorded: inhibited
same,effect of MNTX pretreatment on agonist-induced S1P3 receptor phosphorylation,S1P3 receptor,attenuated
"CCCCCCCCCCCCC/C=C/[C@@H](O)[C@@H](N)COP(=O)(O)O [SIP, sphingosine 1-phosphate]",agonist-induced serine/threonine phosphorylation of the mu opioid receptor,mu opioid receptor,induced serine/threonine phosphorylation
same,agonist-stimulated RhoA activation,RhoA,"activation of the cytoskeletal regulatory small G-protein, RhoA"
same,agonist-induced HPMVEC migration,[1],induced
same,agonist-induced HPMVEC proliferation,[2],induced proliferation
C[C@H]1CN(C[C@H](Cc2ccccc2)C(=O)NCC(=O)O)CC[C@@]1(C)c1cccc(O)c1 [alvimopan],"angiogenesis and tumor growth, combination of opioid, opioid antagonist and anticancer agent compared to the other groups",tumors,enhanced result
same,tumor growth and angiogenesis compared to controls or opioid alone,tumors,reduction in tumor growth and angiogenesis
same,"angiogenesis and tumor growth, combination of opioid, opioid antagonist and anticancer agent compared to the other groups",tumor,enhanced result
CN1CC[C@]23c4c5ccc(O)c4O[C@H]2[C@@H](O)C=C[C@H]3[C@H]1C5 [morphine],agonist-induced tyrosine phosphorylation of VEGF receptor 1 (Flt-1),VEGF receptor 1 (Flt-1),induce tyrosine phosphorylation
same,agonist-induced tyrosine phosphorylation of the VEGF receptor,VEGF receptor,induced tyrosine phosphorylation
same,agonist-induced tyrosine phosphorylation of the PDGF receptor,PDGF receptor,induced tyrosine phosphorylation
same,agonist-induced tyrosine phosphorylation of VEGF receptor 2 (Flk-1),VEGF receptor 2 (Flk-1),induce tyrosine phosphorylation
same,agonist-stimulated RhoA activation,RhoA,stimulate RhoA activation
same,agonist-stimulated RhoA activation,RhoA; listed as MS,stimulate RhoA activation
same,agonist-induced HPMVEC migration,[1],induced
same,agonist-induced HPMVEC migration,[1]; listed as MS,induce HPMVEC migration
same,proliferative retinopathy,[5],induced proliferative retinopathy
same,agonist-induced HPMVEC proliferation,[2],induced proliferation
same,agonist-induced HPMVEC proliferation,[2]; listed as MS,stimulate HPMVEC proliferation
same,increase in F11 c-1 expression in morphine treated mice versus controls,F11 c-1,10 fold
same,agonist-induced tyrosine phosphorylation of the S1P3 receptor,S1P3 receptor,induced tyrosine phosphorylation
C=CCN1CC[C@]23c4c5ccc(O)c4O[C@H]2C(=O)CC[C@@]3(O)[C@H]1C5 [naloxone],effect on morphine induced angiogenesis,[6],did not exhibit a significant effect
platelet-derived growth factor [PDGF],agonist-induced serine/threonine phosphorylation of the mu opioid receptor,mu opioid receptor,induced serine/threonine phosphorylation
same,agonist-stimulated RhoA activation,RhoA,"activation of the cytoskeletal regulatory small G-protein, RhoA"
same,agonist-induced HPMVEC migration,[1],induced
same,agonist-induced HPMVEC proliferation,[2],induced proliferation
vascular endothelial growth factor [VEGF],agonist-induced tyrosine phosphorylation of VEGF receptor 1 (Flt-1),VEGF receptor 1 (Flt-1),induced
same,agonist-induced serine/threonine phosphorylation of the mu opioid receptor,mu opioid receptor,induced serine/threonine phosphorylation
same,agonist-induced tyrosine phosphorylation of VEGF receptor 2 (Flk-1),VEGF receptor 2 (Flk-1),induced
same,agonist-stimulated RhoA activation,RhoA,"stimulate RhoA activation; also recorded: activation of the cytoskeletal regulatory small G-protein, RhoA"
same,agonist-induced HPMVEC migration,[1],induce HPMVEC migration; also recorded: induced
same,agonist-induced HPMVEC proliferation,[2],stimulate HPMVEC proliferation; also recorded: induced proliferation
